Patent US20170029451A1, “BRANCHED CHAIN ACYCLIC NUCLEOSIDE PHOSPHONATE ESTERS AND METHODS OF SYNTHESIS AND USES THEREOF” (CHIMERIX, INC., priority 2013, published 2017)
Read-outs that look alike come from different tables or passages of the source.

How the values were obtained:
[1] = test system: HCMV (Strain AD169); test: Plaque reduction assay, HCMV AD169 in human foreskin fibroblast cells; format: cell-based, Human Cytomegalovirus (HCMV); settings: Human betaherpesvirus 5, AD169, Fibroblast
[2] = in vitro; settings: human
[3] = test system: Herpes Simplex Virus 1 (Strain E-377); test: Plaque reduction assay, HSV-1 in human foreskin fibroblast cells; format: cell-based; settings: Human alphaherpesvirus 1; Strain E-377, human foreskin fibroblast cells
[4] = in vitro; settings: human; remark: listed apart in the source
[5] = test system: Epstein-Barr virus; test: DNA Hybridization Assay for EBV in Akata cells; format: cell-based; settings: human gammaherpesvirus 4, read-out: Efficacy DNA Hybridization Assay (EC50)
Method: Akata cells latently infected with EBV were obtained from John Sixbey. The GS strain of HHV-6A was obtained through the NIH AIDS Research and Reference Reagent Program.
Each experiment that evaluated the antiviral activity of the compounds included both positive and negative control compounds to ensure the performance of each assay. Concurrent assessment of cytotoxicity was also performed for each study at equivalent levels of compound exposure. When sufficient material was available, multiple assays were performed for each compound evaluation to obtain statistical data.
Assays for EBV were performed in Akata cells that were induced to undergo a lytic infection with 50 μg/ml of a goat anti-human IgG antibody by standard methods. Experimental compounds were diluted in round bottom 96-well plates to yield concentrations ranging from 20 to 0.016 μM. Akata cells were added to the plates at a concentration of 4×10^4 cells per well and incubated for 72 h. For HHV-6 assays, compounds were serially diluted in 96-well plates then 1×10^4 uninfected HSB-2 or Molt-3 cells were added to each well. Infection was initiated by adding HHV-6A infected HSB-2 cells, or HHV-6B infected Molt-3 cells, at a ratio of approximately 1 infected cell for every 10 uninfected HSB-2 cells or Molt-3 cells respectively and incubated for 7 d at 37° C. […]

[6] = Cytotoxicity (CC50) in MT4 cells; format: cell-based; settings: human
Method: Costar 96-well tissue culture plates were seeded with 5,000 MT4 cells (NIH AIDS Reagents Program)/well in RPMI (Lonza, Cat 12-11F) containing 10% Hyclone Standard Fetal Bovine Serum (FBS, Cat 5H30088.03), 1% Hyclone Penicillin and Streptomycin (Cat SV30010), and 2 mM Lonza L-Glutamine (Cat 17-605E). Outer wells were not used to minimize the edge-effect produced by extended incubations. Serial dilutions of test compounds were added to the cells and plates were incubated for 6 days at 37° C. in 5% CO2. After 6 days of incubation 40 μL of Cell Titer 96® Aqueous MTS Reagent (Promega, G111) was added as directed by manufacturer to the 200 μL media in each well and incubated at 37° C. until the untreated-cell controls developed an 490 nm absorbance between 1.1 and 1.8. The final absorbance readings were read using a BioTek Synergy 2, and Gen 5 software (BioTek Instruments, Inc.) was used to calculate the concentration which inhibited MT4 cells by 50% (CC50).

[7] = test system: HCMV UL54 resistant mutant D542E (HDP-CDV^R); test: microbe, parasite or virus in culture; format: cell-based, Human Cytomegalovirus (HCMV); settings: Human betaherpesvirus 5, Fibroblast
[8] = test system: BKV (Gardner strain); test: BKV EC50 in Vero cells (qPCR of supernatant BKV DNA); format: cell-based, BK virus (BKV); settings: Betapolyomavirus hominis; BKV in Vero cells (Table 7); read-out: BKV EC50
Method: Costar 96-well tissue culture plates were seeded with 10,000 Vero cells/well in DMEM containing 2% Hyclone Standard Fetal Bovine Serum (FBS, Cat 5H30088.03) and 1% Hyclone Penicillin and Streptomycin. Outer wells were not used to minimize the edge-effect produced by extended incubations. Cells were inoculated with 115 BKV DNA copies/cell (ATCC, Gardner strain). Serial dilutions of test compounds were added to the cells and plates were incubated for 10 days at 37° C. in 5% CO2. After the 10-day incubation, 50 μL supernatant was mixed with 50 μL 2× lysis buffer that provided a final concentration 0.5 mg/mL protease K, 50 mM KCl, 10 mM Tris-Cl pH 8.0, 2.5 mM MgCl2, 0.45% IGEPAL, and 0.45% Tween-20 dissolved in DEPC-treated water. Each plate was incubated for 2 hours at 55° C. Supernatant BKV DNA was measured by quantitative polymerase chain reaction (qPCR) using forward and reverse BKV PCR primers, and a FAM-labeled probe. Absolute quantitation of viral copy number was performed using a standard curve with dilutions of a BKV DNA amplicon containing sequences homologous to the amplified fragment. The following qPCR amplification conditions were used: 1 cycle at 95° C. for 10 minutes, followed by 45 cycles of 95° C. for 15 seconds and 60° C. for 60 seconds. The qPCR reactions were performed using an Applied Biosystems 7500 real Time PCR System. Gen 5 software (BioTek Instruments, Inc.) was used to calculate the concentration which inhibited the viral DNA levels of BKV-infected Vero cells by 50% (EC50).

[9] = test system: HCMV UL54 resistant mutant 4955^R; test: microbe, parasite or virus in culture; format: cell-based, Human Cytomegalovirus (HCMV); settings: Human betaherpesvirus 5, Fibroblast
[10] = test system: HCMV UL54 resistant mutant GDG^RP53; test: microbe, parasite or virus in culture; format: cell-based, Human Cytomegalovirus (HCMV); settings: Human betaherpesvirus 5, Fibroblast
[11] = test system: Human Cytomegalovirus (HCMV); test: HCMV EC50 in MRC-5 cells (qPCR of intracellular CMV DNA); format: cell-based; settings: Human betaherpesvirus 5, MRC5
Method: Costar 96-well tissue culture plates were seeded with 20,000 MRC-5 cells/well in EMEM containing 2% Hyclone Standard Fetal Bovine Serum and 1% Hyclone Penicillin and Streptomycin. Outer wells were not used to minimize the edge-effect produced by extended incubations. Cells were inoculated with HCMV at an MOI of 0.01. Serial dilutions of test compounds were added to the cells and plates were incubated for 7 days at 37° C. in 5% CO2. […] Culture medium was gently removed from infected cells after the 7-day incubation. The cells were rinsed twice with ice-cold PBS, and then freeze/thawed once. Each well was incubated with 200 μL lysis buffer for 2 hours at 55° C. Lysis buffer included 0.5 mg/mL protease K, 50 mM KCl, 10 mM Tris-Cl pH 8.0, 2.5 mM MgCl2, 0.45% IGEPAL, and 0.45% Tween-20 dissolved in DEPC-treated water. Intracellular CMV DNA was measured by quantitative polymerase chain reaction (qPCR) using forward and reverse HCMV PCR primers, and a FAM-labeled probe. Absolute quantitation of viral copy number was performed using a standard curve with dilutions of a HCMV DNA amplicon containing sequences homologous to the amplified fragment. The following qPCR amplification conditions were used: 1 cycle at 95° C. for 10 minutes, followed by 45 cycles of 95° C. for 15 seconds and 60° C. for 60 seconds. The qPCR reactions were performed using an Applied Biosystems 7500 real Time PCR System. Gen 5 software (BioTek Instruments, Inc.) was used to calculate the concentration which inhibited the viral DNA levels of HCMV-infected MRC-5 cells by 50% (EC50).

[12] = test system: Vaccinia Virus (Strain Copenhagen); test: microbe, parasite or virus in culture; format: cell-based; settings: Orthopoxvirus vaccinia, Fibroblast, read-out: VACV EC50, μM
[13] = test system: human foreskin fibroblast cells; test: Neutral red cytotoxicity assay in human foreskin fibroblast cells; settings: read-out: VACV CC50, μm, parallel to VACV assay (second printing of Table 4)
[14] = test system: Cowpox Virus (Strain Brighton); test: microbe, parasite or virus in culture; format: cell-based; settings: Fibroblast, read-out: CPXV EC50, μM
[15] = test system: Influenza virus A/CA/10/2009; test: microbe, parasite or virus in culture; format: cell-based; settings: unidentified influenza virus, MDCK, read-out: A/CA/10/2009 (EC50, μM)
[16] = test system: Influenza virus B/FL/4/2006; test: microbe, parasite or virus in culture; format: cell-based; settings: unidentified influenza virus, MDCK, read-out: B/FL/4/2006 (EC50, μM)
[17] = in vitro; settings: dog
[18] = Mean XC50 (Table 9), read-out: MT4 cytotoxicity CC50
[19] = Mean XC50 (Table 9), read-out: HCMV EC50

## Nc1nc(O)c2ncn(COC(CO)CO)c2n1 [Ganciclovir, reference compound]
[1]; Strain AD169, human foreskin fibroblast cells, read-out: HCMV EC50
  EC50: 1500 nM
[2]
  CC50: > 100 µM

## Nc1nc2c(ncn2COCCO)c(=O)[nH]1 [Acyclovir, reference compound]
[3]
  EC50: 2200 nM
[4]
  CC50: > 100000 nM
[5]
  EC50: 7000 nM
[2]
  CC50: > 100 µM

## CCCCCCCCCCCCCCCCOCCCOP(=O)(O)CO[C@H](CO)Cn1ccc(N)nc1=O [HDP-CDV, Hexadecyloxypropyl-Cidofovir, reference compound]
[6]; MT4 cells (Table 7), read-out: MT4 CC50
  CC50 at 6 days: 60 nM
[6]; [18]
  CC50 at 6 days: 60 nM
[7]; read-out: EC50 μM, Virus D542E (HDP-CDV^R), human foreskin fibroblast cells
  EC50: 0.0295 µM
[7]; read-out: EC90 μM
  EC90: 0.153 µM
[8]
  EC50: 18 nM
[9]; read-out: EC50 μM, Virus 4955^R, human foreskin fibroblast cells
  EC50: 0.0013 µM
[9]; read-out: EC90 μM
  EC90: 0.006 µM
[1]; Virus AD169, human foreskin fibroblast cells (Table 3), read-out: EC50
  EC50: 1 nM
[10]; read-out: EC50 μM, Virus GDG^RP53, human foreskin fibroblast cells
  EC50: 0.0053 µM
[10]; read-out: EC90 μM
  EC90: 0.0316 µM
[11]; HCMV in MRC-5 cells (Table 7), read-out: CMV EC50
  EC50: 0.4 nM
[11]; [19]
  EC50: 0.3 nM

## Nc1ccn(C[C@@H](CO)OCP(=O)(O)O)c(=O)n1 [Cidofovir, reference compound]
[12]
  EC50: 22.4 µM
[13]
  CC50: > 300000 nM
[14]
  EC50: 30.5 µM
[2]; CPXV CC50, μM, Human Foreskin Fibroblast Cells, parallel to CPXV assay
  CC50: > 300 µM

## CCCCCCCCCCCCCCCCOCCCOP(=O)(O)CO[C@H](CO)Cn1ccc(=O)[nH]c1=O [Compound 24]
[6]; [18]
  CC50 at 6 days: 13500 nM
[11]; [19]
  EC50: 8 nM

## CCOC(=O)C1=C[C@@H](OC(CC)CC)[C@H](NC(C)=O)[C@@H](N)C1 [Oseltamivir, reference compound]
[15]
  EC50: 0.17 µM
[16]
  EC50: 16.2 µM
[17]
  CC50: > 20000 nM
